Several values for one entry are separate records, joined by “and”; a condition that tells them apart may be missing. Identical values can stand only once.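 Grown in 96-well plates, cells were treated for 48 hours with each compound at five concentrations. Insufficient inhibition: endpoint recorded as highest concentration tested. GI50 is the concentration that inhibits growth by half. TGI denotes the concentration required for complete inhibition of growth.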 Where a SMILES comes first, the peptide text is derived from it. [ ]: non-standard residue; d: D form. Orn = NCCC[CH](N)C(=O)O

These results are taken from PubChem BioAssay (NCI).

Some test systems named below: A549 NSCLC; ACHN renal; EKVX NSCLC; KM12 colon; MCF7 breast; NCI-H226 lung; NCI-H23 lung; NCI-H522 lung; SW-620 colon; U251 CNS.
Common to all, as to experiment: NCI anticancer screen, dose series, 48 h

Regarding `CCC1=C[C@H]2CN(CCc3c([nH]c4ccccc34)[C@@](C(=O)OC)(c3cc4c(cc3OC)N(C)[C@H]3[C@@](O)(C(=O)OC)[C@H](OC(C)=O)[C@]5(CC)[C@@H]6C[C@@H]6CN6CC[C@]43[C@@H]65)C2)C1`, the GI50 was 0.0396 µM in the experiment on A549 NSCLC; 0.144 µM in the experiment on ACHN renal; 0.0966 µM in the experiment with EKVX NSCLC; 0.0313 µM in the experiment on KM12 colon; 0.0131 µM with MCF7 breast; 2.65 µM in the experiment on NCI-H226 lung. In addition, the GI50 with NCI-H23 lung is 0.121 µM; in the experiment with NCI-H522 lung, 0.011 µM; in the experiment with SW-620 colon it was 0.0428 µM; in the experiment on U251 CNS it was 0.0309 µM. The TGI was 9.56 µM in the experiment on A549 NSCLC; 6.02 µM in the experiment on ACHN renal; greater than 25 µM in the experiment on EKVX NSCLC; 3.8 µM in the experiment on KM12 colon; 3.61 µM with MCF7 breast; 10.3 µM in the experiment on NCI-H226 lung. Further, the TGI in the experiment on NCI-H23 lung is greater than 25 µM; with NCI-H522 lung, 0.302 µM; in the experiment with SW-620 colon, 3.89 µM; with U251 CNS, 3.22 µM.
Take `COc1cccc(-c2cc(NCc3ccc4c(c3)OCO4)nc(N)n2)c1`: the GI50 with A549 NSCLC is 0.057 µM; in the experiment on ACHN renal it was 0.24 µM; with EKVX NSCLC, 3.33 µM; in the experiment with KM12 colon, 0.072 µM; in the experiment on MCF7 breast, 0.0765 µM; in the experiment with NCI-H226 lung, 11.7 µM. Also, the GI50 with NCI-H23 lung was 0.135 µM; in the experiment on NCI-H522 lung, 0.0607 µM; in the experiment with SW-620 colon it was 0.0422 µM; with U251 CNS, 0.0552 µM. Besides, the TGI in the experiment on A549 NSCLC came to 14.9 µM; with ACHN renal it was 29.3 µM; with EKVX NSCLC, 52.3 µM; in the experiment on KM12 colon, 8.18 µM; in the experiment with MCF7 breast, 13.9 µM; in the experiment with NCI-H226 lung, 32.5 µM. For the same compound, the TGI in the experiment with NCI-H23 lung was 16.5 µM; with NCI-H522 lung it was 1.27 µM; in the experiment on SW-620 colon, 16.5 µM; in the experiment with U251 CNS, 11.2 µM.
Take `C(#Cc1ccccc1C#Cc1ccccn1)c1ccc(OCCCCCCOc2ccc(C#Cc3ccccc3C#Cc3ccccn3)cc2)cc1`: the GI50 is 5.72 µM with A549 NSCLC; 1.2 µM in the experiment on ACHN renal; 5.09 µM in the experiment on EKVX NSCLC; 1.65 µM in the experiment on KM12 colon; 1.62 µM with MCF7 breast; 4.33 µM in the experiment with NCI-H226 lung. Moreover, the GI50 with NCI-H23 lung is 6.45 µM; in the experiment with NCI-H522 lung it was 2.55 µM; in the experiment with SW-620 colon, 4.51 µM; in the experiment on U251 CNS it was 4.55 µM. Also, the TGI in the experiment on A549 NSCLC was 13.8 µM; in the experiment on ACHN renal, 7.95 µM; in the experiment on EKVX NSCLC it was 22.9 µM; with KM12 colon it was 8.34 µM; in the experiment on MCF7 breast, 8.29 µM; in the experiment on NCI-H226 lung, 13.3 µM. The TGI turned out to be 16.2 µM with NCI-H23 lung, 13.1 µM in the experiment with NCI-H522 lung, 10.6 µM in the experiment on SW-620 colon and 10.9 µM in the experiment on U251 CNS.
Regarding `O=S(=O)(c1ccccc1)C1CN(Cc2ccccc2)CCN(Cc2ccccc2)C1`, the TGI in the experiment on A549 NSCLC, in the experiment on ACHN renal, with EKVX NSCLC, in the experiment on KM12 colon, with MCF7 breast and with NCI-H226 lung was greater than 100 µM each time. For the same compound, the TGI in the experiment with NCI-H23 lung is greater than 100 µM; in the experiment on NCI-H522 lung, 34.1 µM; in the experiment with SW-620 colon, greater than 78.7 µM; in the experiment with U251 CNS, greater than 100 µM.
Turning to `CCCNNC(=O)c1ccc(CNC(=O)/C=C/c2ccccc2)cc1`, the GI50 was 0.31 µM in the experiment on A549 NSCLC; 0.143 µM with ACHN renal; 0.311 µM in the experiment on EKVX NSCLC; 0.232 µM in the experiment on KM12 colon; 0.216 µM in the experiment on MCF7 breast; 0.314 µM with NCI-H226 lung. Also, the GI50 was 0.228 µM in the experiment on NCI-H23 lung, 0.226 µM in the experiment on NCI-H522 lung, 0.125 µM in the experiment with SW-620 colon and 0.198 µM in the experiment on U251 CNS. In addition, the TGI was greater than 100 µM in the experiment on A549 NSCLC; 0.592 µM with ACHN renal; greater than 100 µM with EKVX NSCLC; 5.05 µM in the experiment on KM12 colon; greater than 100 µM in the experiment with MCF7 breast; 2.58 µM in the experiment with NCI-H226 lung. In addition, the TGI with NCI-H23 lung was greater than 23.5 µM; in the experiment on NCI-H522 lung it was greater than 100 µM; in the experiment on SW-620 colon, 1.06 µM; in the experiment with U251 CNS, 1.71 µM.
As for `COC1(C)Cc2c(c(C)c(O)c3c2C(=O)C=C(Cl)C3=O)O1` (stereo not given), the TGI in the experiment with A549 NSCLC was greater than 100 µM; with ACHN renal it was 56.5 µM; in the experiment with EKVX NSCLC, greater than 100 µM; in the experiment with KM12 colon, greater than 100 µM; in the experiment on MCF7 breast, greater than 100 µM; in the experiment on NCI-H226 lung, greater than 100 µM. Besides, the TGI is greater than 100 µM with NCI-H23 lung, 33 µM in the experiment with NCI-H522 lung, 47.1 µM with SW-620 colon and greater than 100 µM in the experiment on U251 CNS.
Regarding `O=CNc1ccc2c(c1)Cc1cc([N+](=O)[O-])ccc1-2`, the GI50 with A549 NSCLC is 5.75 µM; in the experiment with ACHN renal, 6.52 µM; with EKVX NSCLC it was 0.657 µM; in the experiment with KM12 colon it was 0.715 µM; with MCF7 breast it was 0.561 µM; in the experiment with NCI-H226 lung it was 27.7 µM. The GI50 in the experiment with NCI-H23 lung was 4.61 µM; in the experiment with NCI-H522 lung it was 1.85 µM; in the experiment with SW-620 colon, 2.05 µM; with U251 CNS, 2.97 µM. The TGI is greater than 77.4 µM in the experiment with A549 NSCLC; greater than 100 µM in the experiment with ACHN renal; greater than 100 µM with EKVX NSCLC; greater than 100 µM in the experiment with KM12 colon; greater than 100 µM in the experiment on MCF7 breast; greater than 100 µM in the experiment with NCI-H226 lung. The TGI in the experiment with NCI-H23 lung is greater than 100 µM; in the experiment with NCI-H522 lung, 7.56 µM; in the experiment with SW-620 colon it was greater than 100 µM; with U251 CNS it was greater than 100 µM.
As for `CC(C)CC1NC(=O)C(CCCN)NC(=O)C(C(C)C)NC(=O)C2CCCN2C(=O)C(Cc2ccccc2)NC(=O)C(CC(C)C)NC(=O)C(CCCN)NC(=O)C(C(C)C)NC(=O)C2CCCN2C(=O)C(Cc2ccccc2)NC1=O` (stereo not given) (cyclo(FPV[Orn]LFPV[Orn]L); configuration not given here), the GI50 with A549 NSCLC was 0.00914 µM and 0.0162 µM; in the experiment with ACHN renal, 0.0961 µM and 0.0816 µM; in the experiment with EKVX NSCLC, 0.0105 µM and 0.0175 µM; in the experiment on KM12 colon it was 0.00513 µM; in the experiment on MCF7 breast, 0.0109 µM; in the experiment on NCI-H226 lung it was 0.0203 µM and 0.0564 µM. Besides, the GI50 in the experiment on NCI-H23 lung was 0.00835 µM and 0.0192 µM; in the experiment on NCI-H522 lung, 0.00767 µM; in the experiment on SW-620 colon, 0.0123 µM and 0.0239 µM; in the experiment on U251 CNS, less than 0.00325 µM. Further, the TGI is 0.149 µM and 1.09 µM in the experiment on A549 NSCLC; 3.25 µM and 2.21 µM in the experiment on ACHN renal; 0.442 µM and 1.23 µM in the experiment with EKVX NSCLC; 0.363 µM and 1.04 µM with KM12 colon; 0.373 µM and 0.102 µM with MCF7 breast; 1.03 µM and 1.92 µM with NCI-H226 lung. The TGI is 0.101 µM and 0.175 µM in the experiment on NCI-H23 lung; 0.0376 µM and 0.0958 µM in the experiment on NCI-H522 lung; 0.422 µM and 1.17 µM with SW-620 colon; 0.14 µM and 0.117 µM in the experiment on U251 CNS.
